# According to patent US9717748B2, “Compositions and methods for treating an infection” (CMPD LICENSING, LLC, priority 2015, dated 2017):
# Tests used:
# Proteus vulgaris = test: Expected efficacy of antibiotic agents; details: Gram: neg
# Enterobacter sakazakii = test: Expected efficacy of antibiotic agents; details: Gram: neg
# Pseudomonas fluorescens = test: Expected efficacy of antibiotic agents; details: Gram: neg
# Morganella morganii = test: Expected efficacy of antibiotic agents; details: Gram: neg
# Brucella species = details: Gram: neg
# Klebsiella oxytoca = test: Expected efficacy of antibiotic agents; details: Gram: neg
# Pseudomonas aeruginosa = test: Expected efficacy of antibiotic agents; details: Gram: neg
# Legionella pneumophila = details: Gram: neg
# Bordetella pertussis = test: Expected efficacy of antibiotic agents; details: Gram: neg
# Vibrio cholerae = test: Expected efficacy of antibiotic agents; details: Gram: neg
# Enterobacter cloacae = test: Expected efficacy of antibiotic agents; details: Gram: neg
# Shigella dysenteriae = test: Expected efficacy of antibiotic agents; details: Gram: neg
# Providencia stuartii = test: Expected efficacy of antibiotic agents; details: Gram: neg
# [1] = tested on: Corynebacterium urealyticum; test: Expected efficacy of antibiotic agents; details: Gram: pos
# Neisseria meningitidis = test: Expected efficacy of antibiotic agents; details: Gram: neg
# Corynebacterium jeikeium = test: Expected efficacy of antibiotic agents; details: Gram: pos
# Acinetobacter lwoffii = test: Expected efficacy of antibiotic agents; details: Gram: neg
# Citrobacter diversus = test: Expected efficacy of antibiotic agents; details: Gram: neg
# Rickettsiae = details: Gram: neg
# Haemophilus ducreyi = test: Expected efficacy of antibiotic agents; details: Gram: neg
# Salmonella typhi = test: Expected efficacy of antibiotic agents; details: Gram: neg
# Acinetobacter baumannii = test: Expected efficacy of antibiotic agents; details: Gram: neg
# Klebsiella pneumoniae = test: Expected efficacy of antibiotic agents; details: Gram: neg
# Bartonella bacilliformis = test: Expected efficacy of antibiotic agents; details: Gram: neg
# Shigella sonnei = test: Expected efficacy of antibiotic agents; details: Gram: neg
# Shigella flexneri = test: Expected efficacy of antibiotic agents; details: Gram: neg
# Francisella tularensis = details: Gram: neg
# Neisseria gonorrhoeae = test: Expected efficacy of antibiotic agents; details: Gram: neg
# Clostridium perfringens = details: Gram: anaer
# Citrobacter freundii = test: Expected efficacy of antibiotic agents; details: Gram: neg
# Yersinia pestis = details: Gram: neg
# Haemophilus influenzae = test: Expected efficacy of antibiotic agents; details: Gram: neg
# Escherichia coli = test: Expected efficacy of antibiotic agents; details: Gram: neg
# Shigella boydii = test: Expected efficacy of antibiotic agents; details: Gram: neg
# Providencia rettgeri = test: Expected efficacy of antibiotic agents; details: Gram: neg
# [2] = tested on: Klebsiella (Calymmato-bacterium) granulomatis; test: Expected efficacy of antibiotic agents; details: Gram: neg
# Campylobacter jejuni = test: Expected efficacy of antibiotic agents; details: Gram: neg
# [3] = tested on: Acinetobacter calcoaceticus; test: Expected efficacy of antibiotic agents; details: Gram: neg
# Enterobacter aerogenes = test: Expected efficacy of antibiotic agents; details: Gram: neg
# Serratia marcescens = test: Expected efficacy of antibiotic agents; details: Gram: neg
# Moraxella catarrhalis = test: Expected efficacy of antibiotic agents; details: Gram: neg
# Proteus mirabilis = test: Expected efficacy of antibiotic agents; details: Gram: neg
# [4] = tested on: Staphylococcus epidermidis; test: Expected efficacy of antibiotic agents; details: Gram: pos
# Diphtheroids = test: Expected efficacy of antibiotic agents; details: Gram: pos
# Enterococcus faecium = test: Expected efficacy of antibiotic agents; details: Gram: pos
# Streptococcus pyogenes = test: Expected efficacy of antibiotic agents; details: Gram: pos
# Clostridium difficile = test: Expected efficacy of antibiotic agents; details: Gram: anaer
# [5] = tested on: Methicillin resistant staphaureus (MRSA); test: Expected efficacy of antibiotic agents; details: Gram: pos
# Chlamydia psittaci = details: Gram: n/a
# [6] = tested on: Viridans group streptococci; test: Expected efficacy of antibiotic agents; details: Gram: pos
# Peptostreptococcus = test: Expected efficacy of antibiotic agents; details: Gram: pos
# Bacteroides fragilis = test: Expected efficacy of antibiotic agents; details: Gram: anaer
# [7] = tested on: Staphylococcus aureus (MSSA); test: Expected efficacy of antibiotic agents; details: Gram: pos
# Enterococcus faecalis = test: Expected efficacy of antibiotic agents; details: Gram: pos
# Chlamydia trachomatis = test: Expected efficacy of antibiotic agents; details: Gram: n/a
# Mycoplasma pneumoniae = test: Expected efficacy of antibiotic agents; details: Gram: n/a
# [8] = tested on: Haemophilus parainfluenzae; test: Expected efficacy of antibiotic agents; details: Gram: neg
# Streptococcus agalactiae = test: Expected efficacy of antibiotic agents; details: Gram: pos
# Chlamydia pneumoniae = test: Expected efficacy of antibiotic agents; details: Gram: n/a
compound,measurement,setting,value
C/C(=C\C(=O)OCCCCCCCCC(=O)O)C[C@@H]1OC[C@H](C[C@@H]2O[C@H]2[C@@H](C)[C@H](C)O)[C@@H](O)[C@H]1O [Bactroban],Expected efficacy against Proteus vulgaris,Proteus vulgaris,no
same,Expected efficacy against Enterobacter sakazakii,Enterobacter sakazakii,no
same,Expected efficacy against Pseudomonas fluorescens,Pseudomonas fluorescens,no
same,Expected efficacy against Morganella morganii,Morganella morganii,no
same,Expected efficacy against Brucella species,Brucella species,no
same,Expected efficacy against Klebsiella oxytoca,Klebsiella oxytoca,no
same,Expected efficacy against Pseudomonas aeruginosa,Pseudomonas aeruginosa,no
same,Expected efficacy against Legionella pneumophila,Legionella pneumophila,no
same,Expected efficacy against Bordetella pertussis,Bordetella pertussis,no
same,Expected efficacy against Vibrio cholerae,Vibrio cholerae,no
same,Expected efficacy against Enterobacter cloacae,Enterobacter cloacae,no
same,Expected efficacy against Shigella dysenteriae,Shigella dysenteriae,no
same,Expected efficacy against Providencia stuartii,Providencia stuartii,no
same,Expected efficacy against Corynebacterium urealyticum,[1],no
same,Expected efficacy against Neisseria meningitidis,Neisseria meningitidis,no
same,Expected efficacy against Corynebacterium jeikeium,Corynebacterium jeikeium,no
same,Expected efficacy against Acinetobacter lwoffii,Acinetobacter lwoffii,no
same,Expected efficacy against Citrobacter diversus,Citrobacter diversus,no
same,Expected efficacy against Rickettsiae,Rickettsiae,no
same,Expected efficacy against Haemophilus ducreyi,Haemophilus ducreyi,no
same,Expected efficacy against Salmonella typhi,Salmonella typhi,no
same,Expected efficacy against Acinetobacter baumannii,Acinetobacter baumannii,no
same,Expected efficacy against Klebsiella pneumoniae,Klebsiella pneumoniae,no
same,Expected efficacy against Bartonella bacilliformis,Bartonella bacilliformis,no
same,Expected efficacy against Shigella sonnei,Shigella sonnei,no
same,Expected efficacy against Shigella flexneri,Shigella flexneri,no
same,Expected efficacy against Francisella tularensis,Francisella tularensis,no
same,Expected efficacy against Neisseria gonorrhoeae,Neisseria gonorrhoeae,no
same,Expected efficacy against Clostridium perfringens,Clostridium perfringens,no
same,Expected efficacy against Citrobacter freundii,Citrobacter freundii,no
same,Expected efficacy against Yersinia pestis,Yersinia pestis,no
same,Expected efficacy against Haemophilus influenzae,Haemophilus influenzae,no
same,Expected efficacy against Escherichia coli,Escherichia coli,no
same,Expected efficacy against Shigella boydii,Shigella boydii,no
same,Expected efficacy against Providencia rettgeri,Providencia rettgeri,no
same,Expected efficacy against Klebsiella (Calymmato-bacterium) granulomatis,[2],no
same,Expected efficacy against Campylobacter jejuni,Campylobacter jejuni,no
same,Expected efficacy against Acinetobacter calcoaceticus,[3],no
same,Expected efficacy against Enterobacter aerogenes,Enterobacter aerogenes,no
same,Expected efficacy against Serratia marcescens,Serratia marcescens,no
same,Expected efficacy against Moraxella catarrhalis,Moraxella catarrhalis,no
same,Expected efficacy against Proteus mirabilis,Proteus mirabilis,no
CO/N=C(\C(=O)N[C@@H]1C(=O)N2C(C(=O)O)=C(CSc3nc(=O)c(=O)[nH]n3C)CS[C@H]12)c1csc(N)n1 [Ceftriaxone],Expected efficacy against Enterobacter sakazakii,Enterobacter sakazakii,yes
same,Expected efficacy against Staphylococcus epidermidis,[4],yes
same,Expected efficacy against Diphtheroids,Diphtheroids,no
same,Expected efficacy against Pseudomonas aeruginosa,Pseudomonas aeruginosa,no
same,Expected efficacy against Legionella pneumophila,Legionella pneumophila,no
same,Expected efficacy against Enterococcus faecium,Enterococcus faecium,no
same,Expected efficacy against Streptococcus pyogenes,Streptococcus pyogenes,yes
same,Expected efficacy against Bordetella pertussis,Bordetella pertussis,no
same,Expected efficacy against Vibrio cholerae,Vibrio cholerae,no
same,Expected efficacy against Enterobacter cloacae,Enterobacter cloacae,yes
same,Expected efficacy against Shigella dysenteriae,Shigella dysenteriae,yes
same,Expected efficacy against Clostridium difficile,Clostridium difficile,no
same,Expected efficacy against Providencia stuartii,Providencia stuartii,yes
same,Expected efficacy against Corynebacterium urealyticum,[1],no
same,Expected efficacy against Corynebacterium jeikeium,Corynebacterium jeikeium,no
same,Expected efficacy against Acinetobacter lwoffii,Acinetobacter lwoffii,no
same,Expected efficacy against Methicillin resistant staphaureus (MRSA),[5],no
same,Expected efficacy against Rickettsiae,Rickettsiae,no
same,Expected efficacy against Chlamydia psittaci,Chlamydia psittaci,no
same,Expected efficacy against Viridans group streptococci,[6],yes
same,Expected efficacy against Haemophilus ducreyi,Haemophilus ducreyi,yes
same,Expected efficacy against Salmonella typhi,Salmonella typhi,yes
same,Expected efficacy against Peptostreptococcus,Peptostreptococcus,yes
same,Expected efficacy against Bacteroides fragilis,Bacteroides fragilis,yes
same,Expected efficacy against Staphylococcus aureus (MSSA),[7],yes
same,Expected efficacy against Enterococcus faecalis,Enterococcus faecalis,no
same,Expected efficacy against Chlamydia trachomatis,Chlamydia trachomatis,no
same,Expected efficacy against Acinetobacter baumannii,Acinetobacter baumannii,no
same,Expected efficacy against Klebsiella pneumoniae,Klebsiella pneumoniae,yes
same,Expected efficacy against Mycoplasma pneumoniae,Mycoplasma pneumoniae,no
same,Expected efficacy against Haemophilus parainfluenzae,[8],yes
same,Expected efficacy against Shigella sonnei,Shigella sonnei,yes
same,Expected efficacy against Shigella flexneri,Shigella flexneri,yes
same,Expected efficacy against Francisella tularensis,Francisella tularensis,no
same,Expected efficacy against Neisseria gonorrhoeae,Neisseria gonorrhoeae,yes
same,Expected efficacy against Citrobacter freundii,Citrobacter freundii,yes
same,Expected efficacy against Yersinia pestis,Yersinia pestis,no
same,Expected efficacy against Streptococcus agalactiae,Streptococcus agalactiae,yes
same,Expected efficacy against Providencia rettgeri,Providencia rettgeri,yes
same,Expected efficacy against Klebsiella (Calymmato-bacterium) granulomatis,[2],yes
same,Expected efficacy against Chlamydia pneumoniae,Chlamydia pneumoniae,no
same,Expected efficacy against Campylobacter jejuni,Campylobacter jejuni,no
same,Expected efficacy against Acinetobacter calcoaceticus,[3],no
same,Expected efficacy against Moraxella catarrhalis,Moraxella catarrhalis,yes
same,Expected efficacy against Proteus mirabilis,Proteus mirabilis,yes
Azithromycin,Expected efficacy against Proteus vulgaris,Proteus vulgaris,no
same,Expected efficacy against Enterobacter sakazakii,Enterobacter sakazakii,no
same,Expected efficacy against Pseudomonas fluorescens,Pseudomonas fluorescens,no
same,Expected efficacy against Morganella morganii,Morganella morganii,no
same,Expected efficacy against Brucella species,Brucella species,no
same,Expected efficacy against Staphylococcus epidermidis,[4],yes
same,Expected efficacy against Klebsiella oxytoca,Klebsiella oxytoca,no
same,Expected efficacy against Pseudomonas aeruginosa,Pseudomonas aeruginosa,no
same,Expected efficacy against Legionella pneumophila,Legionella pneumophila,yes
same,Expected efficacy against Enterococcus faecium,Enterococcus faecium,no
same,Expected efficacy against Streptococcus pyogenes,Streptococcus pyogenes,yes
same,Expected efficacy against Enterobacter cloacae,Enterobacter cloacae,no
same,Expected efficacy against Clostridium difficile,Clostridium difficile,no
same,Expected efficacy against Providencia stuartii,Providencia stuartii,no
same,Expected efficacy against Corynebacterium jeikeium,Corynebacterium jeikeium,no
same,Expected efficacy against Acinetobacter lwoffii,Acinetobacter lwoffii,no
same,Expected efficacy against Citrobacter diversus,Citrobacter diversus,no
same,Expected efficacy against Methicillin resistant staphaureus (MRSA),[5],no
same,Expected efficacy against Chlamydia psittaci,Chlamydia psittaci,yes
same,Expected efficacy against Bacteroides fragilis,Bacteroides fragilis,no
same,Expected efficacy against Staphylococcus aureus (MSSA),[7],yes
same,Expected efficacy against Enterococcus faecalis,Enterococcus faecalis,no
same,Expected efficacy against Chlamydia trachomatis,Chlamydia trachomatis,yes
same,Expected efficacy against Acinetobacter baumannii,Acinetobacter baumannii,no
same,Expected efficacy against Klebsiella pneumoniae,Klebsiella pneumoniae,no
same,Expected efficacy against Mycoplasma pneumoniae,Mycoplasma pneumoniae,yes
same,Expected efficacy against Francisella tularensis,Francisella tularensis,no
same,Expected efficacy against Clostridium perfringens,Clostridium perfringens,no
same,Expected efficacy against Citrobacter freundii,Citrobacter freundii,no
same,Expected efficacy against Escherichia coli,Escherichia coli,no
same,Expected efficacy against Streptococcus agalactiae,Streptococcus agalactiae,yes
same,Expected efficacy against Providencia rettgeri,Providencia rettgeri,no
same,Expected efficacy against Klebsiella (Calymmato-bacterium) granulomatis,[2],no
same,Expected efficacy against Chlamydia pneumoniae,Chlamydia pneumoniae,yes
same,Expected efficacy against Campylobacter jejuni,Campylobacter jejuni,yes
same,Expected efficacy against Acinetobacter calcoaceticus,[3],no
same,Expected efficacy against Enterobacter aerogenes,Enterobacter aerogenes,no
same,Expected efficacy against Serratia marcescens,Serratia marcescens,no
same,Expected efficacy against Moraxella catarrhalis,Moraxella catarrhalis,yes
same,Expected efficacy against Proteus mirabilis,Proteus mirabilis,no
